Assay results as given in patent publication US20260125375A1 (Pfizer Inc., priority 2022, published 2026).
Like-named read-outs stand apart in the source and are kept apart here.

How the values were obtained:
CBL-B (residues 36-427) = molecular target: T1, CBL-B (residues 36-427) (Homo sapiens, UniProt Q13191); test: Ligand Displacement Assay (LDA), HTRF competitive binding against BODIPY-labeled fluorescent tracer, CBL-B; conditions: geometric mean of the number of tests, read-out: CBL-B Ki (nM) GMean
T1 construct: Purified CBL-B (residues 36-427) and C-CBL (residues 46-435) proteins from baculovirus-infected insect cells; made in house; host or cells: baculovirus-infected insect cells
Method in brief: (§1)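 Terbium-streptavidin donor on BirA-biotinylated, AviTagged protein from baculovirus-infected insect cells; BODIPY tracer as acceptor. Compound titrations were three-fold and duplicated, […] with 2% DMSO final.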

C-CBL (residues 46-435) = molecular target: T2, C-CBL (residues 46-435) (Homo sapiens, UniProt P22681); test: Ligand Displacement Assay (LDA), HTRF competitive binding against BODIPY-labeled fluorescent tracer, C-CBL; conditions: geometric mean of the number of tests, read-out: C-CBL Ki (nM) GMean
T2 construct: Purified CBL-B (residues 36-427) and C-CBL (residues 46-435) proteins from baculovirus-infected insect cells; made in house; host or cells: baculovirus-infected insect cells
T2 sequence (P22681 46-435): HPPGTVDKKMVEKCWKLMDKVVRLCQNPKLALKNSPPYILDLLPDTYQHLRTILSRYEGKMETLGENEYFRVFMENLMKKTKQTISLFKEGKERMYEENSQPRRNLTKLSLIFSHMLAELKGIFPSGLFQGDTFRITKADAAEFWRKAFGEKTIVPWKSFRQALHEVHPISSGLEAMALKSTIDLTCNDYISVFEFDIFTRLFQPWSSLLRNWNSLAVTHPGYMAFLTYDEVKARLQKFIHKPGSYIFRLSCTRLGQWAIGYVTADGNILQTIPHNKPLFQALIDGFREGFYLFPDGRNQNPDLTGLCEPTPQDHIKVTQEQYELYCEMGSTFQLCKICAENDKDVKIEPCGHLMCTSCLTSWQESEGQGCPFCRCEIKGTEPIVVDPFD
Method in brief: as §1

CBL-B = molecular target: T3, CBL-B (Homo sapiens, UniProt Q13191); test: Jurkat HiBit-IL2 assay (c-CBL KO), reporter cell line expressing CBL-B only; format: cell-based; conditions: geometric mean, read-out: C-CBL KO EC50 (nM) GMean
T3 construct: endogenous in cells; host or cells: Jurkat HiBit-IL2 reporter cells, C-CBL knocked out by CRISPR
Text: (§2) Jurkat HiBit-IL2 Assay (WT, c-CBL KO, CBL-B KO)
(§3) The purpose of the Jurkat HiBit-IL2 assay is to evaluate the effect of the inhibition of CBL-B and/or C-CBL on TCR/CD28 stimulated interleukin-2 (IL-2) secretion.
(§4) The expression of IL-2 can then be accurately measured by HiBit luciferase assay. Further, C-CBL or CBL-B was knocked out by CRISPR respectively in this Jurkat HiBit-IL2 reporter cell line to create reporter cell line expressing CBL-B only (c-CBL knockout (KO)) or C-CBL only (CBL-B KO).
(§5) All three reporter cell lines were maintained in RPMI-1640 media with GlutaMax, 10% fetal bovine serum, 100 units/ml of penicillin, and 100 μg/ml of streptomycin at 37° C., 5% CO2, at a cell density 1×10e5-2×10e6 viable cells/ml. Serial diluted compounds in DMSO (40 nl/well, final 0.1% DMSO in assay cell culture) were plated into 384-well white-wall clear-bottom cell culture plates. Reporter cells were pelleted and resuspended in fresh cell culture medium to 0.66×10e6 cells/ml and added to the assay plate at 30 μl/well (20,000 cells/well). The cells were incubated with compounds for 1 hour at 37° C., 5% CO2. 10 μl/well of anti-CD3 antibody (OKT3) and anti-CD28 antibody (CD28.2) prediluted in fresh cell culture medium at 4× final concentration (anti-CD3 mAb: 4 μg/ml; anti-CD28 mAb: 8 μg/ml) was added into the cells (final concentration of anti-CD3 mAb: 1 μg/ml; anti-CD28 mAb: 2 μg/ml). The cells were cultured for another 4 hours at 37° C., 5% CO2. The Nano-Glo HiBiT Lytic Reagent was prepared following the manufacturer's protocol. 20 ul/well of the Nano-Glo HiBiT Lytic Reagent was added into the reporter cell culture assay plate and incubated at room temperature (20-25° C.) for 15 minutes. The plates were read on a Perkin-Elmer EnVision plate reader with 0.1 second integration time. Data were normalized to “Fold of Effect” with the anti-CD3 and anti-CD28 antibodies only samples as the baseline activation level and EC50 was calculated. The EC50 (nM) values reported are the geometric means (GMean) of the number of tests conducted.

C-CBL = molecular target: T4, C-CBL (Homo sapiens, UniProt P22681); test: Jurkat HiBit-IL2 assay (CBL-B KO), reporter cell line expressing C-CBL only; format: cell-based; conditions: geometric mean, read-out: CBL-B KO EC50 (nM) GMean
T4 construct: endogenous in cells; host or cells: Jurkat HiBit-IL2 reporter cells, CBL-B knocked out by CRISPR
Text: as §2, §3, §4, §5

[1] = C-CBL KO (expressing CBL-B only), Table 16b (further repetition)
[2] = c-CBL KO (CBL-B only), anti-CD3/anti-CD28 stimulation 4 hours, Table 16a
[3] = CBL-B KO (C-CBL only), anti-CD3/anti-CD28 stimulation 4 hours, Table 16a
[4] = CBL-B KO (expressing C-CBL only), Table 16b (further repetition)

CC(C)[C@H]1CN(C)CCN1Cc1nc(C(F)(F)F)cc2c(-c3cccc([C@H](c4nncn4C)C4CCC4)c3)n[nH]c12 [Example D32, 3-{3-[(R)-cyclobutyl(4-methyl-4H-1,2,4-triazol-3-yl)methyl]phenyl}-7-{[(2S)-4-methyl-2-(propan-2-yl)piperazin-1-yl]methyl}-5-(trifluoromethyl)-1H-pyrazolo[3,4-c]pyridine]
Ki (CBL-B (residues 36-427)): 1.3 nM
Ki (C-CBL (residues 46-435)): 10.2 nM
EC50 (CBL-B; [1]): 12 nM
EC50 (CBL-B; [2]): 8 nM
EC50 (C-CBL; [3]): 175 nM
EC50 (C-CBL; [4]): 134 nM

CC[C@H](c1cccc(-c2n[nH]c3c([C@H](C)NC[C@H](C)O)nc(C(F)(F)F)cc23)c1)c1nncn1C (single isomer, unassigned) [Example D76]
Ki (CBL-B (residues 36-427)): 0.7 nM
Ki (C-CBL (residues 46-435)): 2.9 nM
EC50 (CBL-B; [1]): 20 nM
EC50 (C-CBL; [4]): 39 nM

C[C@H](NC1CCC1)c1nc(C(F)(F)F)cc2c(-c3cccc([C@H](c4nncn4C)C4COC4)c3)n[nH]c12 (single isomer, unassigned) [Example C123, N-{(1ξ)-1-[3-{3-[(ξ)-(4-methyl-4H-1,2,4-triazol-3-yl)(oxetan-3-yl)methyl]phenyl}-5-(trifluoromethyl)-1H-pyrazolo[3,4-c]pyridin-7-yl]ethyl}cyclobutanamine]
Ki (CBL-B (residues 36-427)): 19.5 nM
Ki (C-CBL (residues 46-435)): 189 nM
EC50 (CBL-B; [1]): 185 nM
EC50 (C-CBL; [4]): 1070 nM

C[C@H](c1nc(C(F)(F)F)cc2c(-c3cccc([C@H](c4nncn4C)C4CCC4)c3)n[nH]c12)N1CC[C@H]1CO (single isomer, unassigned) [Example D65]
Ki (CBL-B (residues 36-427)): 13.7 nM
Ki (C-CBL (residues 46-435)): 110 nM
EC50 (CBL-B; [1]): 468 nM
EC50 (C-CBL; [4]): 1180 nM

CC(NC(=O)[C@@H](C)O)c1nc(C(F)(F)F)cc2c(-c3cccc([C@H](c4nncn4C)C4CCC4)c3)n[nH]c12 (single isomer, unassigned) [Example I5]
Ki (CBL-B (residues 36-427)): 2.7 nM
Ki (C-CBL (residues 46-435)): 22.9 nM
EC50 (CBL-B; [1]): 62 nM
EC50 (C-CBL; [4]): 299 nM

CC(C)[C@H]1CNCCN1Cc1nc(C(F)(F)F)cc2c(-c3cccc([C@H](c4nncn4C)C4CCC4)c3)n[nH]c12 [Example D36]
Ki (CBL-B (residues 36-427)): 1.4 nM
Ki (C-CBL (residues 46-435)): 16.4 nM
EC50 (CBL-B; [1]): 52 nM
EC50 (C-CBL; [4]): 454 nM

CC(N[C@H](C)[C@H](C)O)c1nc(C(F)(F)F)cc2c(-c3cccc([C@H](c4nncn4C)C4CCC4)c3)n[nH]c12 (single isomer, unassigned) [Example C48]
Ki (CBL-B (residues 36-427)): 2.5 nM
Ki (C-CBL (residues 46-435)): 33 nM
EC50 (CBL-B; [1]): 67 nM
EC50 (CBL-B; [2]): 20 nM
EC50 (C-CBL; [3]): 493 nM
EC50 (C-CBL; [4]): 466 nM

C[C@H](NC(C)(C)CO)c1nc(C(F)(F)F)cc2c(-c3cccc([C@H](c4nncn4C)C4CCC4)c3)n[nH]c12 (single isomer, unassigned) [Example D17]
Ki (CBL-B (residues 36-427)): 1.4 nM
Ki (C-CBL (residues 46-435)): 33.2 nM
EC50 (CBL-B; [1]): 43 nM
EC50 (CBL-B; [2]): 19 nM
EC50 (C-CBL; [3]): 270 nM
EC50 (C-CBL; [4]): 552 nM

C[C@H](CO)N[C@H](C)c1nc(C(F)(F)F)cc2c(-c3cccc([C@H](c4nncn4C)C4CCC4)c3)n[nH]c12 (single isomer, unassigned) [Example C44]
Ki (CBL-B (residues 36-427)): 2.2 nM
Ki (C-CBL (residues 46-435)): 25 nM
EC50 (CBL-B; [1]): 60 nM
EC50 (CBL-B; [2]): 21 nM
EC50 (C-CBL; [3]): 253 nM
EC50 (C-CBL; [4]): 356 nM

CC(NC(=O)CO)c1nc(C(F)(F)F)cc2c(-c3cccc([C@H](c4nncn4C)C4CCC4)c3)n[nH]c12 (single isomer, unassigned) [Example I1]
Ki (CBL-B (residues 36-427)): 0.8 nM
Ki (C-CBL (residues 46-435)): 1.9 nM
EC50 (CBL-B; [1]): 29 nM
EC50 (CBL-B; [2]): 16 nM
EC50 (C-CBL; [3]): 182 nM
EC50 (C-CBL; [4]): 163 nM

C[C@H](N[C@@H]1CC[C@H](O)C1)c1nc(C(F)(F)F)cc2c(-c3cccc([C@H](c4nncn4C)C4CCC4)c3)n[nH]c12 [Example C49, (1S,3R)-3-({(1S)-1-[3-{3-[(R)-cyclobutyl(4-methyl-4H-1,2,4-triazol-3-yl)methyl]phenyl}-5-(trifluoromethyl)-1H-pyrazolo[3,4-c]pyridin-7-yl]ethyl}amino)cyclopentanol]
Ki (CBL-B (residues 36-427)): 2.1 nM
Ki (C-CBL (residues 46-435)): 20.9 nM
EC50 (CBL-B; [2]): 8 nM
EC50 (C-CBL; [3]): 135 nM

C[C@H](O)CN[C@H](C)c1nc(C(F)(F)F)cc2c(-c3cccc([C@H](c4nncn4C)C4CCC4)c3)n[nH]c12 (single isomer, unassigned) [Example D18]
Ki (CBL-B (residues 36-427)): 1 nM
Ki (C-CBL (residues 46-435)): 9 nM
EC50 (CBL-B; [1]): 22 nM
EC50 (CBL-B; [2]): 10 nM
EC50 (C-CBL; [3]): 96 nM
EC50 (C-CBL; [4]): 137 nM

C[C@@H](NC(C)(C)CO)c1nc(C(F)(F)F)cc2c(-c3cccc([C@H](c4nncn4C)C4CCC4)c3)n[nH]c12 (single isomer, unassigned) [Example D55]
Ki (CBL-B (residues 36-427)): 4.8 nM
Ki (C-CBL (residues 46-435)): 76.5 nM
EC50 (CBL-B; [1]): 80 nM
EC50 (C-CBL; [4]): 642 nM

CC(O)CNC(C)c1nc(C2CC2)cc2c(-c3cccc(C(c4nncn4C)C4CCC4)c3)n[nH]c12 (single isomer, unassigned) [Example H1]
Ki (CBL-B (residues 36-427)): 4.3 nM
Ki (C-CBL (residues 46-435)): 48.4 nM
EC50 (CBL-B; [1]): 103 nM
EC50 (CBL-B; [2]): 44 nM
EC50 (C-CBL; [3]): 559 nM
EC50 (C-CBL; [4]): 485 nM

CC(NC[C@H](C)O)c1nc(C(F)(F)F)cc2c(-c3cccc([C@H](c4nncn4C)C4CCCCC4)c3)n[nH]c12 (single isomer, unassigned) [Example C100]
Ki (CBL-B (residues 36-427)): 2.8 nM
Ki (C-CBL (residues 46-435)): 40.4 nM
EC50 (CBL-B; [1]): 110 nM
EC50 (C-CBL; [4]): 1410 nM

CC(NC1CCC1)c1nc(C2CC2)cc2c(-c3cccc(C4(Cc5nncn5C)COC4)c3)n[nH]c12 (single isomer, unassigned) [Example H3, N-{(1ξ)-1-[5-cyclopropyl-3-(3-{3-[(4-methyl-4H-1,2,4-triazol-3-yl)methyl]oxetan-3-yl}phenyl)-1H-pyrazolo[3,4-c]pyridin-7-yl]ethyl}cyclobutanamine]
Ki (CBL-B (residues 36-427)): 8.1 nM
Ki (C-CBL (residues 46-435)): 28.8 nM
EC50 (CBL-B; [1]): 231 nM
EC50 (CBL-B; [2]): 49 nM
EC50 (C-CBL; [3]): 392 nM
EC50 (C-CBL; [4]): 415 nM

C[C@@H](c1nc(C(F)(F)F)cc2c(-c3cccc([C@H](c4nncn4C)C4CCC4)c3)n[nH]c12)N1CC[C@@H](O)C1 (single isomer, unassigned) [Example D68]
Ki (CBL-B (residues 36-427)): 15.2 nM
Ki (C-CBL (residues 46-435)): 134 nM
EC50 (CBL-B; [1]): 293 nM
EC50 (C-CBL; [4]): 1710 nM

CC(NCC(C)(C)O)c1nc(C(F)(F)F)cc2c(-c3cccc([C@H](c4nncn4C)C4CCC4)c3)n[nH]c12 (single isomer, unassigned) [Example C117]
Ki (CBL-B (residues 36-427)): 7.9 nM
Ki (C-CBL (residues 46-435)): 83.6 nM
EC50 (CBL-B; [1]): 170 nM
EC50 (C-CBL; [4]): 794 nM

C[C@@H](c1nc(C(F)(F)F)cc2c(-c3cccc([C@H](c4nncn4C)C4CCC4)c3)n[nH]c12)N1CC[C@H]1CO (single isomer, unassigned) [Example D64]
Ki (CBL-B (residues 36-427)): 8.7 nM
Ki (C-CBL (residues 46-435)): 58 nM
EC50 (CBL-B; [1]): 134 nM
EC50 (C-CBL; [4]): 483 nM
